Experiments:
U87 shTau cells = test: MTT cell viability assay, U87 shTau (Tau-depleted); assay type: cell-based; details: Homo sapiens, 72 h, mean ± SEM, read-out: IC50 (metabolic activity)
Description: (§1) All cell lines were purchased from ATCC, Gaithersburg, MD, USA. Cells from human glioblastoma (clones U87 wt, HTB-14; U118, HTB-15; U251, HTB-12; U138, HTB-16), neuroblastoma (clone SK-N-SH, HTB-11), and colorectal adenocarcinoma (clone Caco-2, HTB-37) were routinely grown at 37 °C in a humidified atmosphere containing 5% CO2. Cells were maintained by regular passages in complete media supplemented with 10% FBS, 2mM of L-glutamine, 100 U/mL of penicillin, and 50 U/mL of streptomycin (Invitrogen, Paris, France). For U87 wt, U251, U138, and SK-N-SH cells, the medium consisted of EMEM (Lonza, Levallois Perret, France). U118 and Caco-2 lines were maintained in DMEM. The U87 wt-derived lines, U87 shCTRL, and U87 shTau2 cells were continuously maintained in complete EMEM medium supplemented with 0.4 µg/mL of puromycin. The shRNA sequences and the protocol of clone selection and Tau downregulation were previously described in [20]. For Tau expression rescue, the U87 shCTRL and U87 shTau cells were seeded two days prior to experiments at 4.10^5 cells per 60 mm dish in 6 mL of complete medium. Cells were transfected using LipofectAmine 2000 according to Invitrogen instructions and 8 µg EGFP-free plasmid constructs (for U87 shCTRL) and EGFP-hTau40 plasmid constructs (for U87 shTau) were used in total. One day prior to experiments, all cells were plated in a 96-well microtiter plate to prepare for viability assays. Cells were free from mycoplasma as determined by mycoalert tests (Lonza).
(§2) Cells harvested from sub-confluent monolayers were seeded at 15,000 cells per mL in a 96-well microtiter plate (Cambridge Technology, Labège, France) and cultured for 24 h under standard conditions. Standard medium was then replaced by fresh medium containing no drugs or compounds at different concentrations. The surviving cells were quantified after 72 h by the MTT assay, according to the manufacturer’s instructions. Briefly, 20 µL of 3-(4,5-diMethylThiazol-2-yl)-2,5diphenyl Tetrazolium bromide (MTT) solution at 5 mg.mL^−1 was added to cells for 3 h at 37 °C. The supernatant was discarded and replaced by 100 µL of dimethyl sulfoxide to dissolve formazan crystals. The absorbance was then read at 600 nm by spectrophotometry. For all concentrations of a given compound, cell viability was expressed as the percentage of the ratio between the mean absorbance of treated cells and the mean absorbance of untreated cells. Three independent experiments were performed, and the data were expressed as percentage of survival (using the untreated cells as 100%) and subjected to statistical analysis (n = 3). The IC50 was calculated using the Chou and Talalay method.

[1] = system: Caco-2 colon adenocarcinoma cells; test: MTT cell viability assay, Caco-2; assay type: cell-based; details: Homo sapiens, Caco-2 (not expressing Tau), 72 h, mean ± SEM, read-out: IC50 (metabolic activity)
Description: as §2

U138 glioblastoma cells = test: MTT cell viability assay, U138; assay type: cell-based; details: Homo sapiens, U138, 72 h, mean ± SEM, read-out: IC50 (metabolic activity)
Description: as §2

U87 shCTRL cells = test: MTT cell viability assay, U87 shCTRL (expressing Tau); assay type: cell-based, human; details: Homo sapiens; U87 shCTRL, 72 h, MTT; mean ± SEM; read-out: IC50 (metabolic activity)
Description: as §1, §2

U251 glioblastoma cells = test: MTT cell viability assay, U251; assay type: cell-based; details: Homo sapiens, U-251, U251, 72 h, mean ± SEM, read-out: IC50 (metabolic activity)
Description: as §2

[2] = system: SK-N-SH neuroblastoma cells; test: MTT cell viability assay, SK-N-SH; assay type: cell-based; details: Homo sapiens, 72 h, mean ± SEM, read-out: IC50 (metabolic activity)
Description: as §2

[3] = molecular target: T1, full-length human Tau (hTau40) (Homo sapiens, UniProt P10636); test: Tau oligomerization inhibition assay (heparin-induced, thioflavin S fluorescence); assay type: biochemical; details: 2 µM Tau, heparin-induced, ThS; buffer A pH 6.9; 25 °C per table footnote (37 °C in method); mean ± SD; read-out: Inhibition of Aggregation IC50
T1 construct: The full-length human Tau (hTau40) was expressed in a transformed E. coli BL21 (DE3) strain; made in house; host or cells: E. coli BL21 (DE3)
Description: Tau oligomerization inhibition assay was performed at 37 °C in 96-well plates by monitoring thioflavin-S fluorescence at 520 nm after excitation at 440 nm using a microplate reader (POLARstar Omega system, BMG Labtech, Paris, France). The Tau oligomerization process was induced by heparin. […] The plates were shaken at 200 rpm for 10 s before each measurement. The real value of fluorescence at the plateau was determined using SciDAVis v1.23 software. Data were fitted to the SciDAVis built-in ExpGrowth equation by means of nonlinear least-squares regression analysis. Y = Y0 + A × exp(x/t)(1)
The unscaled Levenberg–Marquardt algorithm was used, and initial values were given to Y0, A, and t. The final Y0 value of the model corresponds to the plateau value. The plateau values were then used to calculate the Tau oligomerization inhibition percentage. The IC50 for each compound was calculated from the scatter plot of Tau oligomerization inhibition (in percentage) as a function of log10 of compound concentration. The IC50 value (in µM) thus corresponds to ten raised to the power of […].

U87 glioblastoma cells = test: MTT cell viability assay, U87; assay type: cell-based, human; details: Homo sapiens; U87, 72 h, MTT; mean ± SEM; read-out: IC50 (metabolic activity)
Description: as §2

T98G glioblastoma cells = test: MTT cell viability assay, T98G; assay type: cell-based; details: Homo sapiens, 72 h, mean ± SEM, read-out: IC50 (metabolic activity)
Description: as §2

[4] = molecular target: T2, Tau protein (full-length human Tau, hTau40) (Homo sapiens, UniProt P10636); test: Tau intrinsic fluorescence quenching, modified Stern–Volmer binding parameters; details: 5 µM Tau, buffer B pH 6.8, mean ± SD; for Kd: read-out: Equilibrium Binding Constants to Tau, KD
T2 construct: The full-length human Tau (hTau40) was expressed in a transformed E. coli BL21 (DE3) strain; made in house; host or cells: E. coli BL21 (DE3)
Description: Fluorescence measurements were performed with a Horiba Jobin Yvon FluoroMax-3 spectrofluorometer. […] For experiments, the excitation wavelength was fixed at 275 nm, and the emission spectra were recorded between 280 nm and 500 nm at room temperature. The inner filter effects were corrected according to Lakowicz as follows:F = Fobs × exp{(Aem + Aex)/2}(2) where Fobs and F are the observed and corrected fluorescence values at the emission wavelength of 303 nm. Aex and Aem are the absorptions at the excitation and emission wavelengths, respectively, calculated with A = ε.l.C, in which ε is the extinction coefficient of Tau, l is the path length of cuvette, and C is Tau concentration.
The total fluorescence in the absence of quencher (F0) is given by:F0 = F0a + F0b(4) where 0 refers to the fluorescence intensity in the absence of quencher.
In the presence of quencher, we defined fa as the fraction of the initial fluorescence of Tau accessible to compounds:fa = F0a/(F0a + F0b)(5)
Therefore, the intensity of the accessible fraction (fa) is decreased according to the Stern–Volmer equation, whereas the buried fraction is not quenched, as given by:F = {F0a/(1 + K.[Q])} + F0b(6)
Then, subtraction of Equations (6) and (4) yields:ΔF = F0 − F = F0a × {K.[Q]/(1 + K.[Q])}(7)
At last, inversion of Equation (7) followed by division into Equation (4) yields:F0/ΔF = {1/(fa.K.[Q])} + 1/fa(8)
We applied this modified form of the Stern–Volmer equation to graphically determine the values of fa and K. For our experiments, we plotted F0/ΔF against 1/[Q], then we determined the fa value at the point of intersection with the y-axis, while the slope represented (faK)^−1.

T2 sequence (P10636 1-441 isoform P10636-8): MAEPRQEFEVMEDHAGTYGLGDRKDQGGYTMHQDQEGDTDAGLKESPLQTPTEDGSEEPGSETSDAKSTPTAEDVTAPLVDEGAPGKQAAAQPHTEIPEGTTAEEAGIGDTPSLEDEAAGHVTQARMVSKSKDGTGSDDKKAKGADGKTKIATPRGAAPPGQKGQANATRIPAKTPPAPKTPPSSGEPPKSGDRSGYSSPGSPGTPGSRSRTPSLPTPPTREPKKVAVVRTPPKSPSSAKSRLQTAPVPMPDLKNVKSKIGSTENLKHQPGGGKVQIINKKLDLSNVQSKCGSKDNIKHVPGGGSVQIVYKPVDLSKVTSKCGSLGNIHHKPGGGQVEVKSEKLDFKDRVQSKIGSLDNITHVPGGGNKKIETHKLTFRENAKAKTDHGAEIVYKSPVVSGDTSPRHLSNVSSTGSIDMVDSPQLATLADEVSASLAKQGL
T1 sequence (P10636 1-441 isoform P10636-8): as above

SMILES	IC50 (U87 shTau cells)	IC50 [1]	IC50 (U138 glioblastoma cells)	IC50 (U87 shCTRL cells)	IC50 (U251 glioblastoma cells)	IC50 [2]	IC50 [3]	IC50 (U87 glioblastoma cells)	IC50 (T98G glioblastoma cells)	Equilibrium Binding Constants to Tau, fA (Tyr accessible fraction) [4]	Kd [4]
Nc1nc2ccc3oc(-c4ccccc4)cc(=O)c3c2s1 [Compound 3]	> 100 µM	> 100 µM	> 100 µM	> 100 µM	> 100 µM	> 100 µM	> 100 µM	> 100 µM	> 100 µM	–	–
CCOC(=O)c1ccc(-c2cc(=O)c3c(ccc4nc(N)sc43)o2)cc1 [Compound 4]	> 100 µM	> 100 µM	> 100 µM	> 100 µM	> 100 µM	> 100 µM	9.7 ± 0.2 µM	> 100 µM	> 100 µM	0.12 ± 0.01	2.4 ± 0.8 µM
Nc1nc2ccc3oc(-c4ccccc4F)cc(=O)c3c2s1 [Compound 6]	–	–	1 ± 0.4 µM	–	1.3 ± 0.4 µM	–	9 ± 0.5 µM	2.6 ± 1.3 µM	2.9 ± 0.7 µM	–	–
Nc1nc2ccc3oc(-c4cccc(F)c4)cc(=O)c3c2s1 [Compound 7]	–	–	> 100 µM	–	> 100 µM	–	17 ± 2.9 µM	> 100 µM	> 100 µM	0.21 ± 0.02	5.9 ± 1.6 µM
Nc1nc2ccc3oc(-c4ccc(F)cc4)cc(=O)c3c2s1 [Compound 8]	–	–	10.2 ± 5 µM	–	3.6 ± 1.1 µM	–	15 ± 1.2 µM	> 100 µM	> 100 µM	–	–

More lines, now with the values ahead:

IC50 (U87 shTau cells)	IC50 [1]	IC50 (U138 glioblastoma cells)	IC50 (U87 shCTRL cells)	IC50 (U251 glioblastoma cells)	IC50 [2]	IC50 [3]	IC50 (U87 glioblastoma cells)	IC50 (T98G glioblastoma cells)	Equilibrium Binding Constants to Tau, fA (Tyr accessible fraction) [4]	Kd [4]	SMILES
1.4 ± 0.6 µM	–	0.9 ± 0.4 µM	1.2 ± 0.4 µM	1 ± 0.4 µM	–	9.9 ± 1.1 µM	2.6 ± 1.5 µM	1.5 ± 0.7 µM	–	6.3 ± 1.2 µM	Nc1nc2ccc3oc(-c4cccc(F)c4)c(O)c(=O)c3c2s1 [Compound 10]
0.4 ± 0.4 µM	–	5 ± 1.1 µM	0.3 ± 0.2 µM	1.9 ± 0.2 µM	–	> 100 µM	5.1 ± 1.8 µM	3.5 ± 1 µM	0.16 ± 0.01	5.2 ± 1.8 µM	Nc1nc2ccc3oc(-c4ccc(F)cc4)c(O)c(=O)c3c2s1 [Compound 11]
0.5 ± 0.3 µM	–	–	0.6 ± 0.1 µM	–	–	12.4 ± 1.2 µM	4.1 ± 3.4 µM	1.7 ± 0.9 µM	0.19 ± 0.05	4.7 ± 1.3 µM	Nc1nc2ccc3oc(-c4ccccc4)c(O)c(=O)c3c2s1 [Compound 12]
–	–	1.5 ± 0.3 µM	–	1.7 ± 0.1 µM	–	9 ± 0.6 µM	7.9 ± 3.4 µM	9.2 ± 1.2 µM	0.21 ± 0.02	5.4 ± 2.5 µM	COc1c(-c2ccccc2F)oc2ccc3nc(N)sc3c2c1=O [Compound 13]
–	–	4.1 ± 1.6 µM	–	1.9 ± 0.2 µM	–	6.5 ± 0.1 µM	8.8 ± 3.3 µM	11.3 ± 4.1 µM	0.23 ± 0.03	4.1 ± 1 µM	COc1c(-c2ccc(F)cc2)oc2ccc3nc(N)sc3c2c1=O [Compound 15]
> 100 µM	–	> 100 µM	> 100 µM	> 100 µM	–	10.8 ± 2.2 µM	> 100 µM	> 100 µM	0.20 ± 0.03	5 ± 2.5 µM	Nc1nc2ccc3nc(-c4cccc(Oc5ccccc5)c4)[nH]c(=O)c3c2s1 [Compound 16]
> 100 µM	> 100 µM	> 100 µM	> 100 µM	> 100 µM	> 100 µM	> 100 µM	5.1 ± 0.8 µM	> 100 µM	0.14 ± 0.05	3.5 ± 1 µM	Nc1nc2ccc3nc(-c4ccc(Oc5ccccc5)cc4)[nH]c(=O)c3c2s1 [Compound 17]

— PMC10606064, “2-Aminothiazole-Flavonoid Hybrid Derivatives Binding to Tau Protein and Responsible for Antitumor Activity in Glioblastoma” (International Journal of Molecular Sciences, 2023)
